From patent publication US12097193B2, “Methods for the administration of COMT inhibitors” (BIAL—PORTELA & CA, S.A., priority 2018, dated 2024)
Where two headings read alike, the source gives them in different places.

Experiments:
[1] = target: T1, OATP1B1 (Homo sapiens, UniProt Q9Y6L6); conditions: in vitro; cited from earlier work
T1 sequence (Q9Y6L6 1-691): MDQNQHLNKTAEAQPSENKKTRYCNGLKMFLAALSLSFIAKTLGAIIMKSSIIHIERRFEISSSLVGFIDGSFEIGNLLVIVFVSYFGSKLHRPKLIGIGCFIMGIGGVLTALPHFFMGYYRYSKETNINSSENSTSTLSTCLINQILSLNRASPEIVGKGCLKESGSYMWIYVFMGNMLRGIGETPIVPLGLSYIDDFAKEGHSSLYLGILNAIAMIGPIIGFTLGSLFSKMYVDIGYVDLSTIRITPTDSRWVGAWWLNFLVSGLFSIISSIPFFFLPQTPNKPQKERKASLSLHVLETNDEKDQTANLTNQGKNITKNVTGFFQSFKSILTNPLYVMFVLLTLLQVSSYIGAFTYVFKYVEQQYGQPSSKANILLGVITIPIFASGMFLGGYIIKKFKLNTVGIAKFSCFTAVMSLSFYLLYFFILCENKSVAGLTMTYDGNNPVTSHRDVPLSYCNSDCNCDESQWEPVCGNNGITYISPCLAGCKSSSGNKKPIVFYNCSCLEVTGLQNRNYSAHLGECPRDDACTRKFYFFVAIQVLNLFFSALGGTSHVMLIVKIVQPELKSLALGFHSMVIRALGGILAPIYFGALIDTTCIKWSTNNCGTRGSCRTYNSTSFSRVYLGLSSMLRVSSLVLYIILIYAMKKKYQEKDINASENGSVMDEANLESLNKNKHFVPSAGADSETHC

[2] = target: T2, OATP1B3 (Homo sapiens, UniProt Q9NPD5); conditions: in vitro; cited from earlier work
T2 sequence (Q9NPD5 1-702): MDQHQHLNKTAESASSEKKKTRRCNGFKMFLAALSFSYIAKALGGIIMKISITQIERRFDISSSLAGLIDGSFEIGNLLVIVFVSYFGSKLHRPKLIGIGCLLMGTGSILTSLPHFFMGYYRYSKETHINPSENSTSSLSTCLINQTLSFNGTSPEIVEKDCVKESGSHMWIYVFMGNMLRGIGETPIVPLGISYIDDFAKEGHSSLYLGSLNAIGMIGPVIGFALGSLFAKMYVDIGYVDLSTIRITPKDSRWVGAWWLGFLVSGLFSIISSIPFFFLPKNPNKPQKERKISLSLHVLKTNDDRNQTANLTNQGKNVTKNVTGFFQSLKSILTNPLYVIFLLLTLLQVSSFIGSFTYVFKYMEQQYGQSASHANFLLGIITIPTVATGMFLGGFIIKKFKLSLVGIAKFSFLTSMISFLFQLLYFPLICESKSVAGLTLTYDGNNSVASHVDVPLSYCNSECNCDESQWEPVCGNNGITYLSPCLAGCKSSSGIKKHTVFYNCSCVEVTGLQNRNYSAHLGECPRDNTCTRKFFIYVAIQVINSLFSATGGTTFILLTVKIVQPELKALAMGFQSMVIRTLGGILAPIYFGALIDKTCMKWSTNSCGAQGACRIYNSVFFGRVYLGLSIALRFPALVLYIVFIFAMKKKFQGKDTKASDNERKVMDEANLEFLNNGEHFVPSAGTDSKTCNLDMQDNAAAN

[3] = target: T3, BCRP (Homo sapiens, UniProt Q9UNQ0); conditions: in vitro; cited from earlier work
T3 sequence (Q9UNQ0 1-655): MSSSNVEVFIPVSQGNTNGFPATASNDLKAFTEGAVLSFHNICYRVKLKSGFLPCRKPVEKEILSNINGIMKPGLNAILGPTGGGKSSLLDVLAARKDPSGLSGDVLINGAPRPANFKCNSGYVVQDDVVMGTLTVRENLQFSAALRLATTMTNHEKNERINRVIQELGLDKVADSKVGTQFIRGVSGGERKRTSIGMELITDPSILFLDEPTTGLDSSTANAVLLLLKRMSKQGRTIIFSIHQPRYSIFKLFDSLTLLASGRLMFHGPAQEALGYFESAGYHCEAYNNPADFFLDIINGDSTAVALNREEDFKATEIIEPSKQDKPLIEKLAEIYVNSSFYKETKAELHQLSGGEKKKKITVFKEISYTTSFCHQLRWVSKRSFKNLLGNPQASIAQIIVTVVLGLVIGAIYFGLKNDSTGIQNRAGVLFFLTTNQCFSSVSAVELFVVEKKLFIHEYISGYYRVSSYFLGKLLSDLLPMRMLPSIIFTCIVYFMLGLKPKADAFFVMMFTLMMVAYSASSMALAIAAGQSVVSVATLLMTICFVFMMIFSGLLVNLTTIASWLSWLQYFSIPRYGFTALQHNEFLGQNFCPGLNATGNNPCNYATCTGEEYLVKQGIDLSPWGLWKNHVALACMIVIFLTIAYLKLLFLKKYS

[4] = target: P-gp/MDR1 efflux transporter (Homo sapiens, UniProt P08183); conditions: in vitro; cited from earlier work
P-gp/MDR1 efflux transporter, sequence (P08183 whole entry): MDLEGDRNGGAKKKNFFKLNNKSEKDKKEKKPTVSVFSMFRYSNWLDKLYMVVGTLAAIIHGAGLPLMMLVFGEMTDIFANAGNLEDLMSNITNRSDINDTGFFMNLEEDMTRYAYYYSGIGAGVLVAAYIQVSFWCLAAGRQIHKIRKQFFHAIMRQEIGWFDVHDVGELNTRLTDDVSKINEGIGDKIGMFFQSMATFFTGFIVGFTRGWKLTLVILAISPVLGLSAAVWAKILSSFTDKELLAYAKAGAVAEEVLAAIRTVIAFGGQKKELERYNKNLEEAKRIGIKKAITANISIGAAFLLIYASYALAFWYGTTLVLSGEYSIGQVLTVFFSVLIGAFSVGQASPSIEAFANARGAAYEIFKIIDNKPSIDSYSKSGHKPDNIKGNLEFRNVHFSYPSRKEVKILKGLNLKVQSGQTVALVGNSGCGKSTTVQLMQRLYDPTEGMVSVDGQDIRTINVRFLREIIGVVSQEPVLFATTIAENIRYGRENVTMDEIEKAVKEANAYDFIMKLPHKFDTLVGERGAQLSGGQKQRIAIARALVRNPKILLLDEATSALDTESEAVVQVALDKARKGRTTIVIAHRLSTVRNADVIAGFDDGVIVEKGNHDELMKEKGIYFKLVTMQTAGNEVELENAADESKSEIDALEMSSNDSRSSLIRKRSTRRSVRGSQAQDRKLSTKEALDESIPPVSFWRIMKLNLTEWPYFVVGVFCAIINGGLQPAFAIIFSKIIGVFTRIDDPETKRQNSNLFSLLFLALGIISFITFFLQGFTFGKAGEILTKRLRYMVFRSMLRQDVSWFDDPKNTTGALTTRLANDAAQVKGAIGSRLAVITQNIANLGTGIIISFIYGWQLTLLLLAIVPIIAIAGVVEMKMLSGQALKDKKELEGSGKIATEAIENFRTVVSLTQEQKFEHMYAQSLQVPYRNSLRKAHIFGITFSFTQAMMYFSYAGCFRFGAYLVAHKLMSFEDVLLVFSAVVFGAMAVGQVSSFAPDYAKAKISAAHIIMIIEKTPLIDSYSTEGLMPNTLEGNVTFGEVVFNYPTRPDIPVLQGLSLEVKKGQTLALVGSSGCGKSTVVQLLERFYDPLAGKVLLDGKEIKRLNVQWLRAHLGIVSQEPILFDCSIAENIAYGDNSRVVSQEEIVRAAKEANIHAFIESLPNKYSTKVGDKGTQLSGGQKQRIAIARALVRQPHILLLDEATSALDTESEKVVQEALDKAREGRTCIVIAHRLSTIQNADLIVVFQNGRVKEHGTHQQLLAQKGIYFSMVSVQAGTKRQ

[5] = Phase 1 two-period crossover study of the effect of quinidine on the pharmacokinetics of opicapone (plasma PK); type: in vivo, human; conditions: for AUC(0-inf) / AUC(0-t) / Cmax / half-life: plasma, 50 mg
Text: A Phase 1, Randomized, Open-Label, Two-Period Crossover Study to Assess the Effect of Quinidine on the Pharmacokinetics of Opicapone (OPC) in Healthy Subjects
This was a Phase 1, randomized, open-label, 2-period crossover drug interaction study of the effect of quinidine on the PK of OPC in healthy subjects. A total of 20 subjects (10 males and 10 females) were randomized to 1 of 2 treatment sequences (5 males and 5 females per sequence) as depicted in the table below. Randomization to treatment sequence were stratified by gender. Enrolled subjects received a single dose of each of the following treatments under fasted conditions: OPC 50 mg and quinidine 600 mg plus OPC 50 mg (OPC will be administered 1 hour after quinidine). There was be a 14-day washout between the doses in each treatment period.
Subjects fasted overnight for at least 10 hours before OPC dosing on Day 1 and continued to fast for an additional 4 hours after OPC dosing.
Blood samples for the assessment of plasma concentrations of OPC and its metabolites were collected within 30 minutes predose and approximately 0.5, 1, 1.5, 2, 3, 4, 6, 8, 10, 12, 24, 48, 72, 96, and 120 hours postdose. The PK parameters to be calculated included the following for OPC and its metabolites:
Blood samples for the assessment of plasma concentrations of OPC and its metabolites were collected within 30 minutes predose and approximately 0.5, 1, 1.5, 2, 3, 4, 6, 8, 10, 12, 24, 48, 72, 96, and 120 hours postdose.
The following plasma PK parameters were calculated only for OPC: • Apparent systemic clearance after oral administration (CL/F). • Apparent volume of distribution during the terminal phase after oral administration (Vz/F).
PK parameters for OPC and its metabolites were calculated using noncompartmental methods. […] Safety data will be summarized with descriptive statistics.
Pharmacokinetic parameters (AUC0-inf, AUC0-t, and Cmax) for Opicapone were natural log-transformed prior to analysis and evaluated separately using a linear mixed effects model with fixed effects terms for sequence, period, and treatment. […] CV %=SQRT[exp(s^2)−1]×100 and ‘s’ is the standard deviation of the log-transformed values.

Cc1c(Cl)c(C)[n+]([O-])c(Cl)c1-c1noc(-c2cc(OS(=O)(=O)O)c(O)c([N+](=O)[O-])c2)n1 [BIA 9-1103]
transported by OATP1B1 [1]: transported
transported by OATP1B3 [2]: transported
efflux transported by BCRP [3]: efflux transported
efflux transported by P-gp (P-gp/MDR1 substrate) [4]: not a substrate

Cc1c(Cl)c(C)[n+]([O-])c(Cl)c1-c1noc(-c2cc(O)c(O)c([N+](=O)[O-])c2)n1 [OPC, 5-[3-(2,5-dichloro-4,6-dimethyl-1-oxy-pyridin-3-yl)-[1,2,4]oxadiazol-5-yl]-3-nitrobenzene-1,2-diol]
transported by OATP1B1 [1]: not transported
Tmax ([5]; both sexes, human, oral, opicapone in plasma, healthy subjects, fasted, single dose OPC 50 mg, Median): 91.8 min
AUC(0-inf) ([5]; both sexes, human, oral, opicapone in plasma, healthy subjects, fasted, single dose OPC 50 mg, Geometric Mean (descriptive), read-out: AUC(0-inf), Geometric Mean): 2060 ng·h/mL
AUC(0-t) ([5]; both sexes, human, oral, opicapone in plasma, healthy subjects, fasted, single dose OPC 50 mg, Geometric Mean (descriptive), read-out: AUC(0-last), Geometric Mean): 1960 ng·h/mL
Cmax ([5]; both sexes, human, oral, opicapone in plasma, healthy subjects, fasted, single dose OPC 50 mg, Geometric Mean (descriptive), read-out: Cmax, Geometric Mean): 766 ng/mL
half-life ([5]; both sexes, human, oral, opicapone in plasma, healthy subjects, fasted, single dose OPC 50 mg, Geometric Mean (descriptive), read-out: t½, Geometric Mean (converted)): 53.2 min
AUC(0-inf) ([5]; both sexes, human, oral, opicapone in plasma, healthy subjects, fasted, single dose OPC 50 mg, Mean, read-out: AUC(0-inf), Mean): 2140 ng·h/mL
AUC(0-t) ([5]; both sexes, human, oral, opicapone in plasma, healthy subjects, fasted, single dose OPC 50 mg, Mean, read-out: AUC(0-last), Mean): 2040 ng·h/mL
Cmax ([5]; both sexes, human, oral, opicapone in plasma, healthy subjects, fasted, single dose OPC 50 mg, Mean, read-out: Cmax, Mean): 804 ng/mL
half-life ([5]; both sexes, human, oral, opicapone in plasma, healthy subjects, fasted, single dose OPC 50 mg, Mean, read-out: t½, Mean (converted)): 55.1 min
AUC(0-inf) ([5]; both sexes, human, oral, opicapone in plasma, healthy subjects, fasted, single dose OPC 50 mg, Median, read-out: AUC(0-inf), Median): 2020 ng·h/mL
AUC(0-t) ([5]; both sexes, human, oral, opicapone in plasma, healthy subjects, fasted, single dose OPC 50 mg, Median, read-out: AUC(0-last), Median): 1940 ng·h/mL
Cmax ([5]; both sexes, human, oral, opicapone in plasma, healthy subjects, fasted, single dose OPC 50 mg, Median, read-out: Cmax, Median): 782 ng/mL
half-life ([5]; both sexes, human, oral, opicapone in plasma, healthy subjects, fasted, single dose OPC 50 mg, Median, read-out: t½, Median (converted)): 55.9 min
AUC(0-inf) ([5]; both sexes, human, oral, opicapone, geometric mean from linear mixed effects model, OPC 50 mg, healthy subjects, read-out: AUC0-inf, GM): 2030 ng·h/mL
AUC(0-t) ([5]; both sexes, human, oral, opicapone, geometric mean from linear mixed effects model, OPC 50 mg, healthy subjects, read-out: AUC0-t, GM): 1960 ng·h/mL
Cmax ([5]; both sexes, human, oral, opicapone, geometric mean from linear mixed effects model, OPC 50 mg, healthy subjects, read-out: Cmax, GM): 766 ng/mL
decrease in opicapone exposure ([5]; in those also being administered quinidine): approximately 30%
Tlag, Median ([5]; opicapone in plasma, healthy subjects, fasted, single dose OPC 50 mg, Median): 0.00 h
transported by OATP1B3 [2]: transported
efflux transported by BCRP [3]: efflux transported
efflux transported by P-gp (P-gp/MDR1 substrate) [4]: efflux transported
